Data on 23 molecules can be found in patent publication US10526327B2, “Histone demethylase inhibitors” (CELGENE QUANTICEL RESEARCH, INC., priority 2013, dated 2020).

Each structure is given as a SMILES string. Bounds are passed on as bounds.

The target of one assay is T1, Jarid1B (Homo sapiens, UniProt Q9UGL1).
T1 construct: purchased BPS Bioscience or custom made by MolecularThroughput 50121
T1 sequence (Q9UGL1 2-751): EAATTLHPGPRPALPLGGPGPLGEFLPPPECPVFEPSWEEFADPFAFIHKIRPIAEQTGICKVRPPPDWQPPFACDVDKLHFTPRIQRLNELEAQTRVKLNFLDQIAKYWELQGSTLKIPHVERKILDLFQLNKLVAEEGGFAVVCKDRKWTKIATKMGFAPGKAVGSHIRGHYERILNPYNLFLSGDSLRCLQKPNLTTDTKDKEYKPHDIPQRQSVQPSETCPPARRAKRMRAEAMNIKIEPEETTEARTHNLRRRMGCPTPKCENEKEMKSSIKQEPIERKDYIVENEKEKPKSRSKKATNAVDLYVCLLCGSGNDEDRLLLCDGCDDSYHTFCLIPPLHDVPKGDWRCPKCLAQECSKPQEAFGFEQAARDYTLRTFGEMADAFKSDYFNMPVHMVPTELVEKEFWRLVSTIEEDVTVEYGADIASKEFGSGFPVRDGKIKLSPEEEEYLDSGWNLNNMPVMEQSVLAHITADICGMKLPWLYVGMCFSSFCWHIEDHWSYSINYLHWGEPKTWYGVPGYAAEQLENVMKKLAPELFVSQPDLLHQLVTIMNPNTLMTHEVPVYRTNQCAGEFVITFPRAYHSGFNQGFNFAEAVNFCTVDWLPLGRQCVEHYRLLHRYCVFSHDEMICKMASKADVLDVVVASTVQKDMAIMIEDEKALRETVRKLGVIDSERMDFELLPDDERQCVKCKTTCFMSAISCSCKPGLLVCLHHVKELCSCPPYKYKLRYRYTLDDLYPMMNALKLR
The assay is described as follows: Jarid1B in vitro enzyme inhibition assay (TR-FRET). In kind it is biochemical. From the text: (§1) This assay determines the ability of a test compound to inhibit Jarid1A, Jarid1B, and JMJD2C demethylase activity. Baculovirus expressed Jarid1A (GenBank Accession #NM_001042603, AA1-1090) was purchased from BPS Bioscience (Cat#50110). Baculovirus expressed Jarid1B (GenBank Accession #NM_006618, AA 2-751) was purchased from BPS Bioscience (Cat #50121) or custom made by MolecularThroughput. Baculovirus expressed JMJD2C (GenBank Accession #BC143571, AA 2-372) was purchased from BPS Bioscience (Cat#50105).
The ability of test compounds to inhibit the activity of Jarid1B was determined in 384-well plate format under the following reaction conditions: 0.8 nM Jarid1B, 300 nM H3K4me3-biotin labeled peptide (Anaspec cat #64357), 2 μM alpha-ketoglutaric acid in assay buffer of 50 mM HEPES, pH7.3, 0.005% Brij35, 0.5 mM TCEP, 0.2 mg/ml BSA, 50 μM sodium L-ascorbate, and 2 μM ammonium iron(II) sulfate. Reaction product was determined quantitatively by TR-FRET after the addition of detection reagent Phycolink Streptavidin-allophycocyanin (Prozyme) and Europium-anti-mono-or di-methylated histone H3 lysine 4 (H3K4me1-2) antibody (PerkinElmer) in the presence of 5 mM EDTA in LANCE detection buffer (PerkinElmer) at a final concentration of 25 nM and 1 nM, respectively.
(§2) The assay reaction was initiated by the following: 2 μl of the mixture of 900 nM H3K4me3-biotin labeled peptide and 6 μM alpha-ketoglutaric acid with 2 μl of 11-point serial diluted inhibitor in 3% DMSO was added to each well of the plate, followed by the addition of 2 μl of 2.4 nM Jarid1B to initiate the reaction. The reaction mixture was incubated at room temperature for 30 minutes, and terminated by the addition of 6 μl of 5 mM EDTA in LANCE detection buffer containing 50 nM Phycolink Streptavidin-allophycocyanin and 2 nM Europium-anti-H3K4me1-2 antibody. Plates were read by EnVisionMultilabel Reader in TR-FRET mode (excitation at 320 nm, emission at 615 nm and 665 nm) after 1 hour incubation at room temperature. A ratio was calculated (665/615) for each well and fitted to determine inhibition constant (IC50).
In general terms: TR-FRET usually uses a lanthanide donor and a delayed reading to cut background.

For a further assay, the target named is T2, JMJD2C (Homo sapiens, UniProt Q9H3R0).
T2 construct: purchased BPS Bioscience 50105
T2 sequence (Q9H3R0 2-372): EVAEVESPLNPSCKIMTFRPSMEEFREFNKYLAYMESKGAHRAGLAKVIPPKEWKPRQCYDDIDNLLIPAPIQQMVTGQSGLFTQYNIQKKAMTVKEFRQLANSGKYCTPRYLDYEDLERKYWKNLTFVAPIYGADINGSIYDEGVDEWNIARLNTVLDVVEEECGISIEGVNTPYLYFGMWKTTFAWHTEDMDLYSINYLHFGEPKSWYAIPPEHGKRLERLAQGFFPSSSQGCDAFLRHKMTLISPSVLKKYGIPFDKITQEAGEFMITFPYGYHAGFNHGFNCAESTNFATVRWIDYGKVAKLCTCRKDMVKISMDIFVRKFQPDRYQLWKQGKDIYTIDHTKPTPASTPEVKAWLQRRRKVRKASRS
The assay is described as follows: JMJD2C in vitro enzyme inhibition assay (TR-FRET). It is filed as biochemical.
Text: as §1
The ability of test compounds to inhibit the activity of JMJD2C was determined in 384-well plate format under the following reaction conditions: 0.3 nM JMJD2C, 300 nM H3K9me3-biotin labeled peptide (Anaspec cat #64360), 2 μM alpha-ketoglutaric acid in assay buffer of 50 mM HEPES, pH7.3, 0.005% Brij35, 0.5 mM TCEP, 0.2 mg/ml BSA, 50 μM sodium L-ascorbate, and 2 μM ammonium iron(II) sulfate. Reaction product was determined quantitatively by TR-FRET after the addition of detection reagent Phycolink Streptavidin-allophycocyanin (Prozyme) and Europium-anti-di-methylated histone H3 lysine 9 (H3K9me2) antibody (PerkinElmer) in the presence of 5 mM EDTA in LANCE detection buffer (PerkinElmer) at a final concentration of 50 nM and 1 nM, respectively.
as §2, with “nM H3K9me3-biotin” for “nM H3K4me3-biotin”, “DMSO were” for “DMSO was”, “of 0.9” for “of 2.4”, “nM JMJD2C” for “nM Jarid1B”, “containing 100” for “containing 50”, “nM Europium-anti-H3K9me2” for “nM Europium-anti-H3K4me1-2”

By IC50 is commonly meant the concentration needed to halve the response being measured. Higher therefore signals lower potency. Take `Oc1nc(Oc2cccc(C(F)(F)F)c2)nc2cnccc12` [Example 52, 2-[3-(trifluoromethyl)phenoxy]pyrido[3,4-d]pyrimidin-4-ol]: the IC50 against Jarid1B was at most 100 nM; against JMJD2C, 100 to 1000 nM.

Turning to `COc1ccc(Oc2nc(O)c3ccncc3n2)cc1F` [Example 53, 2-(3-fluoro-4-methoxyphenoxy)pyrido[3,4-d]pyrimidin-4-ol], the IC50 against Jarid1B is at most 100 nM; at JMJD2C, 100 to 1000 nM.

For the molecule `CCCn1cc(Oc2nc(O)c3ccncc3n2)cn1` [Example 54, 2-(1-propylpyrazol-4-yl)oxypyrido[3,4-d]pyrimidin-4-ol], the IC50 was at most 100 nM against Jarid1B and 100 to 1000 nM on JMJD2C.

In the case of `CC(C)CCn1cc(Oc2nc(O)c3ccncc3n2)cn1` [Example 55, 2-{[1-(3-methylbutyl)pyrazol-4-yl]oxy}pyrido[3,4-d]pyrimidin-4-ol], the IC50 against Jarid1B and against JMJD2C was at most 100 nM in each case.

On to `Oc1nc(Oc2cnn(C3CCCC3)c2)nc2cnccc12` [Example 56, 2-[(1-cyclopentylpyrazol-4-yl)oxy]pyrido[3,4-d]pyrimidin-4-ol], for which the IC50 at Jarid1B and against JMJD2C was at most 100 nM throughout.

`CCc1cccc(Oc2nc(O)c3ccncc3n2)c1` [Example 57, 2-(3-ethylphenoxy)pyrido[3,4-d]pyrimidin-4-ol]: the IC50 on Jarid1B and against JMJD2C was at most 100 nM in each case.

`CCCc1cccc(Oc2nc(O)c3ccncc3n2)c1` [Example 58, 2-(3-propylphenoxy)pyrido[3,4-d]pyrimidin-4-ol]: the half-maximal inhibitory concentration (IC50) against Jarid1B was at most 100 nM; against JMJD2C, 100 to 1000 nM.

For the molecule `CN(C)c1ccc(Oc2nc(O)c3ccncc3n2)cc1` [Example 59, 2-[4-(dimethylamino)phenoxy]pyrido[3,4-d]pyrimidin-4-ol], the concentration for half-maximal inhibition (IC50) against Jarid1B is at most 100 nM; on JMJD2C it was 100 to 1000 nM.

Turning to `O=C(c1cc(F)cc(Oc2nc(O)c3ccncc3n2)c1)N1CCOCC1` [Example 60], the values for the IC50 against Jarid1B and on JMJD2C were at most 100 nM and 100 to 1000 nM, respectively.

Regarding `COCCn1ncc2ccc(Oc3nc(O)c4ccncc4n3)cc21` [Example 61, 2-{[1-(2-methoxyethyl)-1H-indazol-6-yl]oxy}pyrido[3,4-d]pyrimidin-4-ol], the IC50 is at most 100 nM against Jarid1B and 100 to 1000 nM on JMJD2C.

Take `CCn1cc(Oc2nc(O)c3ccncc3n2)cn1` [Example 62, 2-[(1-ethyl-1H-pyrazol-4-yl)oxy]pyrido[3,4-d]pyrimidin-4-ol]: the IC50 against Jarid1B and against JMJD2C was at most 100 nM throughout.

As to `CC(C)n1cc(Oc2nc3cnccc3c(=O)[nH]2)cn1` [Example 63, 2-{[1-(propan-2-yl)-1H-pyrazol-4-yl]oxy}pyrido[3,4-d]pyrimidin-4-ol], the IC50 on Jarid1B is at most 100 nM; on JMJD2C, 100 to 1000 nM.

With `COCCn1cc(Oc2nc(O)c3ccncc3n2)cn1` [Example 64, 2-{[1-(2-methoxyethyl)-1H-pyrazol-4-yl]oxy}pyrido[3,4-d]pyrimidin-4-ol], the IC50 against Jarid1B is at most 100 nM; on JMJD2C it was 100 to 1000 nM.

As for `COCCCn1cc(Oc2nc(O)c3ccncc3n2)cn1` [Example 65, 2-{[1-(3-methoxypropyl)-1H-pyrazol-4-yl]oxy}pyrido[3,4-d]pyrimidin-4-ol], the IC50 was at most 100 nM at Jarid1B and 100 to 1000 nM against JMJD2C.

As for `Oc1nc(Oc2cnn(Cc3ccccc3)c2)nc2cnccc12` [Example 66, 2-[(1-benzyl-1H-pyrazol-4-yl)oxy]pyrido[3,4-d]pyrimidin-4-ol], the IC50 on Jarid1B and at JMJD2C was at most 100 nM each time.

`Oc1nc(Oc2cnn(C3CCOCC3)c2)nc2cnccc12` [Example 67, 2-{[1-(tetrahydro-2H-pyran-4-yl)-1H-pyrazol-4-yl]oxy}pyrido[3,4-d]pyrimidin-4-ol]: the IC50 at Jarid1B is at most 100 nM; against JMJD2C, 100 to 1000 nM.

Regarding `COc1nc(O)c2ccnc(-c3cn(C)cn3)c2n1` [Example 68, 2-methoxy-8-(1-methyl-1H-imidazol-4-yl)pyrido[3,4-d]pyrimidin-4-ol], the half-inhibitory concentration (IC50) on Jarid1B is at most 100 nM; against JMJD2C it was 100 to 1000 nM.

For `CCOc1nc(O)c2ccnc(-c3cn(C)cn3)c2n1` [Example 69, 2-ethoxy-8-(1-methyl-1H-imidazol-4-yl)pyrido[3,4-d]pyrimidin-4-ol], the results for the concentration for half-maximal inhibition (IC50) at Jarid1B and on JMJD2C were at most 100 nM and 100 to 1000 nM, respectively.

On to `Cn1cnc(-c2nccc3c(O)nc(OCC(F)(F)F)nc23)c1` [Example 70, 8-(1-methyl-1H-imidazol-4-yl)-2-(2,2,2-trifluoroethoxy)pyrido[3,4-d]pyrimidin-4-ol], for which the 50% inhibitory concentration (IC50) on Jarid1B was at most 100 nM; against JMJD2C, 100 to 1000 nM.

With `Cn1cnc(-c2nccc3c(O)nc(OCc4ccc(F)cc4)nc23)c1` [Example 71, 2-[(4-fluorobenzyl)oxy]-8-(1-methyl-1H-imidazol-4-yl)pyrido[3,4-d]pyrimidin-4-ol], the IC50 at Jarid1B was at most 100 nM; against JMJD2C, 100 to 1000 nM.

For `Cn1cnc(-c2nccc3c(O)nc(OCC4CC4)nc23)c1` [Example 72, 2-(cyclopropylmethoxy)-8-(1-methylimidazol-4-yl)pyrido[3,4-d]pyrimidin-4-ol], the IC50 was at most 100 nM against Jarid1B and 100 to 1000 nM against JMJD2C.

As for `Cn1cnc(-c2nccc3c(O)nc(OCCCC(F)(F)F)nc23)c1` [Example 74, 8-(1-methylimidazol-4-yl)-2-(4,4,4-trifluorobutoxy)pyrido[3,4-d]pyrimidin-4-ol], the 50% inhibitory concentration (IC50) was at most 100 nM against Jarid1B and 100 to 1000 nM on JMJD2C.

`Cn1cnc(-c2nccc3c(O)nc(OCCO)nc23)c1` [Example 75, 2-(2-hydroxyethoxy)-8-(1-methylimidazol-4-yl)pyrido[3,4-d]pyrimidin-4-ol]: the figures for the IC50 against Jarid1B and at JMJD2C were at most 100 nM and 100 to 1000 nM, respectively.
